Where two headings read alike, the source gives them in different places.
What was measured:
Type in all cases: cell-based
[1] = target: protein kinases (human kinome) (Homo sapiens, UniProt O94921); details: for logFC: CDK14 (O94921-1), experiment wp172; for logFC of CDK14 (O94921-1): Experiment wp172
[2] = target: protein kinases (human kinome) (Homo sapiens, UniProt O94804); details: STK10 (O94804), experiment wp103
[3] = target: T1, protein kinases (human kinome) (Homo sapiens, UniProt Q8IVH8); details: for logFC: MAP4K3 Q8IVH8; for logFC MAP4K3: MAP4K3 Q81VH8
T1 sequence (Q8IVH8 1-894): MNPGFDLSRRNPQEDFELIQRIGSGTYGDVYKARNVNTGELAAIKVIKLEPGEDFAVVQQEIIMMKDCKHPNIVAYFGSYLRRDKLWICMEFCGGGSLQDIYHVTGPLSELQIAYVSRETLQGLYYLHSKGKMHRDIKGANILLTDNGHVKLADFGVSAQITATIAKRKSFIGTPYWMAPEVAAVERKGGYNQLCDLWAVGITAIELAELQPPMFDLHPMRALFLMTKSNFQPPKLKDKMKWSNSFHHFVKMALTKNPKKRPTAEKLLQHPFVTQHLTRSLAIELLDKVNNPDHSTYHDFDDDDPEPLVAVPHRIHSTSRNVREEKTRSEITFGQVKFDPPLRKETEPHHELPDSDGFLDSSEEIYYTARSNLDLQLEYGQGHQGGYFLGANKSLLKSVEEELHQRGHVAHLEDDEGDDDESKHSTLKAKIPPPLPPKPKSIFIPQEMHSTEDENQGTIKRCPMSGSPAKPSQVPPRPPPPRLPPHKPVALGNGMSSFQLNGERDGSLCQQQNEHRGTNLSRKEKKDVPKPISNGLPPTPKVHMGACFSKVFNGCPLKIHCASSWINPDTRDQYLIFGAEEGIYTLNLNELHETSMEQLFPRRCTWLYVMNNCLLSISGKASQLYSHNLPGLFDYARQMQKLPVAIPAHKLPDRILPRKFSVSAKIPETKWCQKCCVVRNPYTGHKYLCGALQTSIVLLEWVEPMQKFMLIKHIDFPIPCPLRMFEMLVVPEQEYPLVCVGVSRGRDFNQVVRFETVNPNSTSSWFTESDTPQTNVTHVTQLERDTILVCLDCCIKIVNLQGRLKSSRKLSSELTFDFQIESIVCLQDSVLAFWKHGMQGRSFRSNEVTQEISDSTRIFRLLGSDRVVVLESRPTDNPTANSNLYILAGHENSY

[4] = target: protein kinases (human kinome) (Homo sapiens, UniProt Q9NSY1); details: BMP2K Q9NSY1
protein kinases (human kinome) (Homo sapiens, UniProt Q9NSY1), sequence (Q9NSY1 whole entry): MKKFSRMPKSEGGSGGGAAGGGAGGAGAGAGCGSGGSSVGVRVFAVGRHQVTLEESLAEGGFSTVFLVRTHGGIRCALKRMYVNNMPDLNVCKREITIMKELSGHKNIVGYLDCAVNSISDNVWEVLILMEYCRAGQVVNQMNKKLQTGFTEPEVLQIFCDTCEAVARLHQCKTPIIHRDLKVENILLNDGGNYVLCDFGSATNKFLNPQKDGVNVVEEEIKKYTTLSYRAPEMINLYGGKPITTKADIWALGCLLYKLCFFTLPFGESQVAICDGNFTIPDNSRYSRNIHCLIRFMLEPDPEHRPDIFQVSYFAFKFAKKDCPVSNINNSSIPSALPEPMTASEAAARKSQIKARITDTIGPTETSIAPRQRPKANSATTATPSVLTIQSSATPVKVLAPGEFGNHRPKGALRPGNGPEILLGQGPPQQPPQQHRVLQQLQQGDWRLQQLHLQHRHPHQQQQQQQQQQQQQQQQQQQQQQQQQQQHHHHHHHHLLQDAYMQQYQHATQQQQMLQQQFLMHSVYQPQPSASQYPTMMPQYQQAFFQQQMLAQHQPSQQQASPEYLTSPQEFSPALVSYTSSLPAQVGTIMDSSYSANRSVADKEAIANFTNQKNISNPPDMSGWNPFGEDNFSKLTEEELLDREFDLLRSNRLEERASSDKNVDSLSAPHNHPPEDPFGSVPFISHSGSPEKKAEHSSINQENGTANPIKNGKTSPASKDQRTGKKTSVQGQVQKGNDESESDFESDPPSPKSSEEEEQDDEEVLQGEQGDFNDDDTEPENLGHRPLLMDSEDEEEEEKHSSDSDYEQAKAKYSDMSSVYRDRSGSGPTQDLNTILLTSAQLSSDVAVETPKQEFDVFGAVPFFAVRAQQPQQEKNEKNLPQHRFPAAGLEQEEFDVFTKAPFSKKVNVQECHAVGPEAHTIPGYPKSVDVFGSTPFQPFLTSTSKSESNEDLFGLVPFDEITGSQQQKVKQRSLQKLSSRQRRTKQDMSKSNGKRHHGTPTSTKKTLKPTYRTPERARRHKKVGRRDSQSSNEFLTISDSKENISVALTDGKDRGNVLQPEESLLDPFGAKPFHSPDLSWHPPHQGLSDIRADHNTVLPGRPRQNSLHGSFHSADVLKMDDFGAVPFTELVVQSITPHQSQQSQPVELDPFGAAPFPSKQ

protein kinases (human kinome) (Homo sapiens, UniProt O94921), sequence (O94921 whole entry): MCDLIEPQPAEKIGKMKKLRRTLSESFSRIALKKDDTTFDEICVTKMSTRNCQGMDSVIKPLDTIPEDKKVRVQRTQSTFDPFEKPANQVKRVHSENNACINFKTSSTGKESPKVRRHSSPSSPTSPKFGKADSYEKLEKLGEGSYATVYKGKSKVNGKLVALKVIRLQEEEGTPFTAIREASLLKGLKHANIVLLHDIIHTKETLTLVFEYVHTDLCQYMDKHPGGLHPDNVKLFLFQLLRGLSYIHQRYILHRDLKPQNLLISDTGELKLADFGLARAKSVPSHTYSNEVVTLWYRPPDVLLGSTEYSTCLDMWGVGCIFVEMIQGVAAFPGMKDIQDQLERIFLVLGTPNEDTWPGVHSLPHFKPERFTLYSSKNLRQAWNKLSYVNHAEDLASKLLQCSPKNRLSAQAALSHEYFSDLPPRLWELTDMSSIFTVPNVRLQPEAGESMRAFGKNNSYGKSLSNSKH
protein kinases (human kinome) (Homo sapiens, UniProt O94804), sequence (O94804 whole entry): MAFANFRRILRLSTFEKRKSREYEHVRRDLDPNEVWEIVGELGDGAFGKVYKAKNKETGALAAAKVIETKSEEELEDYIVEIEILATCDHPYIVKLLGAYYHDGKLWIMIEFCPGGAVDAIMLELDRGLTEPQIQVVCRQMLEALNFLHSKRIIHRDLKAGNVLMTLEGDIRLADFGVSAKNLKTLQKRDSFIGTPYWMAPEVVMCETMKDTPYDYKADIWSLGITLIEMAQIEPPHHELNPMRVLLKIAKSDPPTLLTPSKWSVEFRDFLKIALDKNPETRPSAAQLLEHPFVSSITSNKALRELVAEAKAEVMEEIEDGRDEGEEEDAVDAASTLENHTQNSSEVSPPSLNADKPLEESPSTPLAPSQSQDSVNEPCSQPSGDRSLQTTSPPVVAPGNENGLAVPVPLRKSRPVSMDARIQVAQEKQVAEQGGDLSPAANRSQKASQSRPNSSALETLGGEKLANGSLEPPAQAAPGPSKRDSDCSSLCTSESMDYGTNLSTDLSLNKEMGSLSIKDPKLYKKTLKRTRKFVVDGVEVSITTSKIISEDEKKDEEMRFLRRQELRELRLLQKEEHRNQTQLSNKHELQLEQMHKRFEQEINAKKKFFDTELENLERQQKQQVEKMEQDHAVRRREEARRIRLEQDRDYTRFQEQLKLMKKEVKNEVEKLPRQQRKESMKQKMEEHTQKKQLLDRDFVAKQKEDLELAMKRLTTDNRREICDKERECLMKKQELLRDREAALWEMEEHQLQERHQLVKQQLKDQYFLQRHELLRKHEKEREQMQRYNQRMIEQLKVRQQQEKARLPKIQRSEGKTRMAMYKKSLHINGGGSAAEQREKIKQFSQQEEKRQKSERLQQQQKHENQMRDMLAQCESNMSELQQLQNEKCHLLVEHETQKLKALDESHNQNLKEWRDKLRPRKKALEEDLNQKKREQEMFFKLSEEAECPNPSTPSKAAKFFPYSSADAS

Compound	logFC [1]	logFC of CDK14 (O94921-1) [1]	logFC [2]	logFC ([2]; direction down)	logFC ([3]; experiment wp105)	logFC ([3]; experiment wp107)	logFC ([3]; experiment wp133, 4 hr)	logFC ([3]; experiment wp172)	logFC MAP4K3 ([3]; experiment wp105)	logFC MAP4K3 ([3]; experiment wp107)	logFC MAP4K3 ([3]; experiment wp133, 4 hr)	logFC MAP4K3 ([3]; experiment wp172)	logFC ([4]; experiment wp016)	logFC BMP2K ([4]; experiment wp016)	logFC ([4]; experiment wp105)	logFC BMP2K ([4]; experiment wp105)
Cc1ccc(C(=O)Nc2ccc(CN3CCN(CCCOCCOCCOCCNC(=O)COc4cccc5c4C(=O)N(C4CCC(=O)NC4=O)C5=O)CC3)c(C(F)(F)F)c2)cc1C#Cc1cnc2cccnn12 (stereo not drawn) [SB1.G.187]	−1.525	−1.525	−0.3374	−0.3374	–	–	–	–	–	–	–	–	–	–	–	–
CC(C)S(=O)(=O)c1ccccc1Nc1nc(Nc2ccc(N3CCN(CCOCCNC(=O)CNc4cccc5c4C(=O)N(C4CCC(=O)NC4=O)C5=O)CC3)cc2)ncc1Cl (stereo not drawn) [SK.3.91]	−0.8176	−0.8176	–	–	−0.571	−0.8456	−0.6321	−0.7962	−0.571	−0.8456	−0.6321	−0.7962	−0.4706	−0.4706	−0.4043	−0.4043
